Structures can show the parent of a compound that is named as a salt.
Target: T1, human histamine H4 receptor (Homo sapiens, UniProt Q9H3N8)
T1 construct: expressed in transfected cells; host or cells: SK-N-MC cells or COS7 cells, transiently transfected; cell membranes used
Assay: Binding Assay on Recombinant Human Histamine H4 Receptor
Conditions: competition binding with 3H-histamine (5 nM), membranes of SK-N-MC or COS7 cells expressing human H4 receptor; Cheng-Prusoff, KD 5 nM; average of results obtained; read-out: Ki
Method in brief: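 Membranes from SK-N-MC or COS7 cells transiently transfected with human H4 receptor were incubated with ³H-histamine (5-70 nM); nonspecific binding defined with 10,000 nM histamine. Bound radioactivity collected by GF/C filtration and scintillation counting; test compounds assessed by displacement of ³H-ligand binding across concentrations.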

T1 sequence (Q9H3N8 whole entry): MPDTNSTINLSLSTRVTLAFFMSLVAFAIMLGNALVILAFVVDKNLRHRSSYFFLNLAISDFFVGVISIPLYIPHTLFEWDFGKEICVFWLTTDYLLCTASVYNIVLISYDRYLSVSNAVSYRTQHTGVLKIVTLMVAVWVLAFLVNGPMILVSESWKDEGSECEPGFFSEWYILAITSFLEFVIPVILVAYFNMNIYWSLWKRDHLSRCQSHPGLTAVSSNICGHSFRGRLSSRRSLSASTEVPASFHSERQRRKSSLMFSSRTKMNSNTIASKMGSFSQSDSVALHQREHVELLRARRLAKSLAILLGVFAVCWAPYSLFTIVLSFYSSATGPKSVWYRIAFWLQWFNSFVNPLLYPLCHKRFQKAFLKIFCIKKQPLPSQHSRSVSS

Nc1nc(N2CCC[C@H](N)C2)c2oc3ccc(C(F)(F)F)cc3c2n1 [Example 141, (S)-4-(3-Amino-piperidin-1-yl)-8-trifluoromethyl-benzo[4,5]furo[3,2-d]pyrimidin-2-ylamine trifluoroacetic acid salt]
Ki: 43 nM

Nc1nc(N2CCNCC2)c2oc3ccc(C(F)(F)F)cc3c2n1 [Example 142, 4-piperazin-1-yl-8-trifluoromethyl-benzo[4,5]furo[3,2-d]pyrimidin-2-ylamine trifluoroacetic acid salt]
Ki: 13 nM

Nc1nc(N2C[C@@H]3C[C@H]2CN3)c2oc3ccc(C(F)(F)F)cc3c2n1 [Example 143, (S,S)-4-(2,5-Diaza-bicyclo[2.2.1]hept-2-yl)-8-trifluoromethyl-benzo[4,5]furo[3,2-d]pyrimidin-2-ylamine citrate salt]
Ki: 270 nM

Nc1nc(N2CC(N)C2)c2oc3ccc(C(F)(F)F)cc3c2n1 [Example 144, 4-(3-Amino-azetidin-1-yl)-8-trifluoromethyl-benzo[4,5]furo[3,2-d]pyrimidin-2-ylamine]
Ki: > 10000 nM

CN1CCN(c2nc(N)nc3c2oc2ccc(F)c(F)c23)CC1 [Example 145, 8,9-Difluoro-4-(4-methyl-piperazin-1-yl)-benzo[4,5]furo[3,2-d]pyrimidin-2-ylamine trifluoroacetic acid salt]
Ki: 160 nM

Nc1nc(N2CCNCC2)c2oc3ccc(F)c(F)c3c2n1 [Example 146, 8,9-Difluoro-4-piperazin-1-yl-benzo[4,5]furo[3,2-d]pyrimidin-2-ylamine trifluoroacetic acid salt]
Ki: 1280 nM

Nc1nc(N2CCC[C@H](N)C2)c2oc3ccc(F)c(F)c3c2n1 [Example 147, (S)-4-(3-Amino-piperidin-1-yl)-8,9-difluoro-benzo[4,5]furo[3,2-d]pyrimidin-2-ylamine trifluoroacetic acid salt]
Ki: > 10000 nM

CN[C@@H]1CCN(c2nc(N)nc3c2oc2ccc(F)c(F)c23)C1 [Example 148, (R)-8,9-Difluoro-4-(3-methylamino-pyrrolidin-1-yl)-benzo[4,5]furo[3,2-d]pyrimidin-2-ylamine trifluoroacetic acid salt]
Ki: 39 nM

Nc1nc(N2C[C@@H]3C[C@H]2CN3)c2oc3ccc(F)c(F)c3c2n1 [Example 149, (S,S)-4-(2,5-Diaza-bicyclo[2.2.1]hept-2-yl)-8,9-difluoro-benzo[4,5]furo[3,2-d]pyrimidin-2-ylamine trifluoroacetic acid salt]
Ki: > 10000 nM

Nc1nc(N2CC(N)C2)c2oc3ccc(F)c(F)c3c2n1 [Example 150, 4-(3-Amino-azetidin-1-yl)-8,9-difluoro-benzo[4,5]furo[3,2-d]pyrimidin-2-ylamine trifluoroacetic acid salt]
Ki: 5380 nM

CN1CCN(c2nc(N)nc3c2oc2cccc(Cl)c23)CC1 [Example 151, 9-Chloro-4-(4-methyl-piperazin-1-yl)-benzo[4,5]furo[3,2-d]pyrimidin-2-ylamine trifluoroacetic acid salt]
Ki: 74 nM

CN[C@@H]1CCN(c2nc(N)nc3c2oc2cccc(Cl)c23)C1 [Example 152, (R)-9-Chloro-4-(3-methylamino-pyrrolidin-1-yl)-benzo[4,5]furo[3,2-d]pyrimidin-2-ylamine trifluoroacetic acid salt]
Ki: 87 nM

Nc1nc(N2CCNCC2)c2oc3cccc(Cl)c3c2n1 [Example 153, 9-Chloro-4-piperazin-1-yl-benzo[4,5]furo[3,2-d]pyrimidin-2-ylamine trifluoroacetic acid salt]
Ki: 1030 nM

Nc1nc(N2CCC[C@H](N)C2)c2oc3cccc(Cl)c3c2n1 [Example 154, (S)-4-(3-Amino-piperidin-1-yl)-9-chloro-benzo[4,5]furo[3,2-d]pyrimidin-2-ylamine trifluoroacetic acid salt]
Ki: > 10000 nM

Nc1nc(N2C[C@@H]3C[C@H]2CN3)c2oc3cccc(Cl)c3c2n1 [Example 155, (S,S)-9-Chloro-4-(2,5-diaza-bicyclo[2.2.1]hept-2-yl)-benzo[4,5]furo[3,2-d]pyrimidin-2-ylamine trifluoroacetic acid salt]
Ki: 460 nM

Nc1nc(N2CC(N)C2)c2oc3cccc(Cl)c3c2n1 [Example 156, 4-(3-Amino-azetidin-1-yl)-9-chloro-benzo[4,5]furo[3,2-d]pyrimidin-2-ylamine trifluoroacetic acid salt]
Ki: > 10000 nM

COc1ccc2c(c1)sc1c(N3CCN(C)CC3)nc(N)nc12 [Example 159, 7-Methoxy-4-(4-methyl-piperazin-1-yl)-benzo[4,5]thieno[3,2-d]pyrimidin-2-ylamine trifluoroacetic acid salt]
Ki: 180 nM

OCCNc1nc(N2CCNCC2)c2oc3ccc(Cl)cc3c2n1 [Example 160, 2-(8-Chloro-4-piperazin-1-yl-benzo[4,5]furo[3,2-d]pyrimidin-2-ylamino)-ethanol]
Ki: > 10000 nM

N[C@H]1CCCN(c2nc(NCCO)nc3c2oc2ccc(Cl)cc23)C1 [Example 161, (S)-2-[4-(3-Amino-piperidin-1-yl)-8-chloro-benzo[4,5]furo[3,2-d]pyrimidin-2-ylamino]-ethanol]
Ki: > 10000 nM

NC1CN(c2nc(NCCO)nc3c2oc2ccc(Cl)cc23)C1 [Example 162, 2-[4-(3-Amino-azetidin-1-yl)-8-chloro-benzo[4,5]furo[3,2-d]pyrimidin-2-ylamino]-ethanol]
Ki: > 10000 nM

CN1CCN(c2nc(N(C)C)nc3c2oc2ccc(Cl)cc23)CC1 [Example 163, [8-Chloro-4-(4-methyl-piperazin-1-yl)-benzo[4,5]furo[3,2-d]pyrimidin-2-yl]-dimethyl-amine]
Ki: 718 nM

Source: US8030321B2, “Benzofuro- and benzothienopyrimidine modulators of the histamine H4 receptor” (Janssen Pharmaceutica, NV, priority 2006, dated 2011)
